# US20260083674A1, “OXAZOLIDINONE LIPOSOME COMPOSITIONS” (priority 2021, published 2026)
# Where two headings read alike, the source gives them in different places.
# Tested on: M. tuberculosis MDR strains M70, M28, M94, M14, TN5904 and H37Rv
# Test: microbe, parasite or virus in culture
# Format: cell-based, Mycobacterium tuberculosis
# Details: for MIC, μg/mL in M. tuberculosis strain: M14: MDR strain M14, MABA assay; for MIC, μg/mL in M. tuberculosis strain: M28: MDR strain M28, MABA assay; for MIC, μg/mL in M. tuberculosis strain: M70: MDR strain M70, MABA assay; for MIC, μg/mL in M. tuberculosis strain: TN5904: MDR strain TN5904, MABA assay; for MIC, μg/mL in M. tuberculosis strain: H37Rv: drug-susceptible strain H37Rv, MABA assay; for MIC: Mycobacterium tuberculosis, H37RV; for MIC, μg/mL in M. tuberculosis strain: M94: MDR strain M94, MABA assay
# [1] = read-out: MIC, μg/mL in M. tuberculosis strain: M28
# [2] = read-out: MIC, μg/mL in M. tuberculosis strain: M94
SMILES,"MIC, μg/mL in M. tuberculosis strain: M14 [µg/mL]","MIC, μg/mL in M. tuberculosis strain: M28 [µg/mL]","MIC, μg/mL in M. tuberculosis strain: M70 [µg/mL]","MIC, μg/mL in M. tuberculosis strain: TN5904 [µg/mL]","MIC, μg/mL in M. tuberculosis strain: H37Rv [µg/mL]","MIC (read-out: MIC, μg/mL in M. tuberculosis strain: TN5904) [µg/mL]",MIC [1] [µg/mL],MIC [2] [µg/mL],"MIC, μg/mL in M. tuberculosis strain: M94 [µg/mL]"
CO[C@H]1/C=C/O[C@@]2(C)Oc3c(C)c(O)c4c(O)c(c(/C=N/N5CCN(C)CC5)c(O)c4c3C2=O)NC(=O)/C(C)=C\C=C\[C@H](C)[C@H](O)[C@@H](C)[C@@H](O)[C@@H](C)[C@H](OC(C)=O)[C@@H]1C [RIF],0.06,>8,>8,>8,0.06,,,,
CC(=O)NC[C@H]1CN(c2ccc(-c3ccc(-c4nnn(CCN(C)C)n4)nc3)c(F)c2)C(=O)O1 [AKG-38],,,,,,0.03,,,
Cl.Cl.NCCn1nnc(-c2ccc(-c3ccc(N4C[C@H](CN)OC4=O)cc3F)cn2)n1 [AKG-29],,,,,,,0.125,0.125,
COc1c(N2C[C@@H]3CCCN[C@@H]3C2)c(F)cc2c(=O)c(C(=O)O)cn(C3CC3)c12 [MOX],,,,,,,,0.125,
NNC(=O)c1ccncc1 [INH],>2,>2,>2,2,0.06,,,,>2
Cn1nnc(-c2ccc(-c3ccc(N4C[C@H](CN)OC4=O)cc3F)cn2)n1 [AKG-3],,,,,,,0.06,0.06,
CN[C@@H]1[C@H](O[C@H]2[C@H](O[C@H]3[C@H](O)[C@@H](O)[C@H](N=C(N)N)[C@@H](O)[C@@H]3N=C(N)N)O[C@@H](C)[C@]2(O)C=O)O[C@@H](CO)[C@H](O)[C@H]1O [STR],>8,0.125,2,1,0.5,,,,>8
